Activity calls are given as the source filed them. How the calls were made is not given here.
System: rodent lifetime carcinogenesis bioassay, tumor incidence TD50
Assay: chronic cancer bioassays in animals – CPDB, compiled studies (AID 1745844)

In the case of `CCOP(=S)(OCC)Oc1ccc([N+](=O)[O-])cc1`, the carcinogen call (mouse, strain B6C3F1, females, in feed, site: any site (literature study), lesion: several types, types named in the paper, dosed 80 weeks, study length 89 weeks) is reported as “negative (inactive)”, the TD50 (mouse, strain B6C3F1, males, in feed, site: any site (literature study), lesion: several types, types named in the paper, dosed 67 weeks, study length 89 weeks) is reported as 75.1 mg/kg/day (inactive) and the TD50 (mouse, strain B6C3F1, males, in feed, site: liver, lesion: hepatocellular adenoma + hepatocellular carcinoma + neoplastic nodule, dosed 67 weeks, study length 89 weeks) is reported as 111 mg/kg/day. For the same compound, the TD50 (mouse, strain B6C3F1, males, in feed, site: lung, lesion: alveolar/bronchiolar adenoma + alveolar/bronchiolar carcinoma, dosed 67 weeks, study length 89 weeks) was 52.5 mg/kg/day, the TD50 (rat, strain Osborne-Mendel, females, in feed, site: adrenal gland, lesion: cortical adenoma + cortical carcinoma, dosed 80 weeks, study length 109 weeks) was 3.93 mg/kg/day and the TD50 (rat, strain Osborne-Mendel, females, in feed, site: adrenal gland, lesion: cortical adenoma, dosed 80 weeks, study length 109 weeks) was 5.31 mg/kg/day. The carcinogen call (rat, strain Osborne-Mendel, females, in feed, site: any site (literature study), lesion: several types, types named in the paper, dosed 80 weeks, study length 112 weeks) was “negative (inactive)”, the TD50 (rat, strain Osborne-Mendel, females, in feed, site: liver, lesion: hepatocellular adenoma + hepatocellular carcinoma + neoplastic nodule, dosed 80 weeks, study length 112 weeks) was 16.4 mg/kg/day and the TD50 (rat, strain Osborne-Mendel, females, in feed, site: mammary gland, lesion: fibroadenoma, dosed 80 weeks, study length 109 weeks) was 2.07 mg/kg/day. The TD50 (rat, strain Osborne-Mendel, males, in feed, site: adrenal gland, lesion: cortical adenoma + cortical carcinoma, dosed 80 weeks, study length 109 weeks) was 5.22 mg/kg/day, the TD50 (rat, strain Osborne-Mendel, males, in feed, site: adrenal gland, lesion: cortical adenoma, dosed 80 weeks, study length 109 weeks) was 6.39 mg/kg/day and the TD50 (rat, strain Osborne-Mendel, males, in feed, site: any site (literature study), lesion: several types, types named in the paper, dosed 80 weeks, study length 112 weeks) was 3.65 mg/kg/day (inactive). The TD50 (rat, strain Osborne-Mendel, males, in feed, site: liver, lesion: hepatocellular adenoma + hepatocellular carcinoma + neoplastic nodule, dosed 80 weeks, study length 112 weeks) was 17.7 mg/kg/day and the TD50 (rat, strain Osborne-Mendel, males, in feed, site: pancreatic islets, lesion: islet-cell carcinoma, dosed 80 weeks, study length 109 weeks) was 19.2 mg/kg/day.
With `O=S(=O)([O-])[O-].[Ni+2]` the carcinogen call (mouse, strain B6C3F1, females, inhaled, site: any site (literature study), lesion: several types, types named in the paper, dosed 104 weeks, study length 104 weeks) was “negative (inactive)”, the TD50 (mouse, strain B6C3F1, females, inhaled, site: lung, lesion: alveolar/bronchiolar adenoma + alveolar/bronchiolar carcinoma, dosed 104 weeks, study length 104 weeks) was 3.1 mg/kg/day and the carcinogen call (mouse, strain B6C3F1, males, inhaled, site: any site (literature study), lesion: several types, types named in the paper, dosed 104 weeks, study length 105 weeks) was “negative (inactive)”. The carcinogen call (rat, strain Fischer 344, females, inhaled, site: any site (literature study), lesion: several types, types named in the paper, dosed 104 weeks, study length 104 weeks) was “negative (inactive)”, the carcinogen call (rat, strain Fischer 344, males, inhaled, site: any site (literature study), lesion: several types, types named in the paper, dosed 104 weeks, study length 105 weeks) was “negative (inactive)” and the TD50 (rat, strain Fischer 344, males, inhaled, site: liver, lesion: hepatocellular adenoma + hepatoblastoma + hepatocellular carcinoma, dosed 104 weeks, study length 105 weeks) was 2.08 mg/kg/day.
With `CNc1ncnc2c1ncn2[C@@H]1O[C@H](CO)[C@@H](O)[C@H]1O` the TD50 (mouse, strain Swiss CD-1, females, in drinking water, site: liver, lesion: several types, types named in the paper, dosed 34 weeks, study length 115 weeks) was 364 mg/kg/day (inactive), the carcinogen call (mouse, strain Swiss CD-1, females, in drinking water, site: lung, lesion: one or several types, types not named, dosed 34 weeks, study length 115 weeks) was “negative (inactive)” and the TD50 (mouse, strain Swiss CD-1, males, in drinking water, site: liver, lesion: several types, types named in the paper, dosed 34 weeks, study length 118 weeks) was 108 mg/kg/day (inactive). For the same compound, the TD50 (mouse, strain Swiss CD-1, males, in drinking water, site: lung, lesion: one or several types, types not named, dosed 34 weeks, study length 118 weeks) was 55.6 mg/kg/day (inactive).
`CCCCNC(N)=O` was tested, and the carcinogen call (mouse, strain C57BL/6, females, in feed, site: any site (literature study), lesion: several types, types named in the paper, dosed 52 weeks, study length 69 weeks) was “negative (inactive)”, the carcinogen call (mouse, strain C57BL/6, females, in feed, site: liver, lesion: hepatocellular carcinoma, dosed 52 weeks, study length 69 weeks) was “negative (inactive)” and the carcinogen call (mouse, strain C57BL/6, females, in feed, site: lung, lesion: adenoma, dosed 52 weeks, study length 69 weeks) was “negative (inactive)”. For the same compound, the TD50 (mouse, strain C57BL/6, males, in feed, site: any site (literature study), lesion: several types, types named in the paper, dosed 52 weeks, study length 69 weeks) was 699 mg/kg/day (inactive), the carcinogen call (mouse, strain C57BL/6, males, in feed, site: liver, lesion: hepatocellular carcinoma, dosed 52 weeks, study length 69 weeks) was “negative (inactive)” and the TD50 (mouse, strain C57BL/6, males, in feed, site: lung, lesion: adenoma, dosed 52 weeks, study length 69 weeks) was 5510 mg/kg/day (inactive). The carcinogen call (rat, strain Fischer 344, females, in feed, site: any site (literature study), lesion: several types, types named in the paper, dosed 52 weeks, study length 69 weeks) was “negative (inactive)”, the carcinogen call (rat, strain Fischer 344, females, in feed, site: liver, lesion: one or several types, types not named, dosed 52 weeks, study length 69 weeks) was “negative (inactive)” and the carcinogen call (rat, strain Fischer 344, males, in feed, site: any site (literature study), lesion: several types, types named in the paper, dosed 52 weeks, study length 69 weeks) was “negative (inactive)”. The carcinogen call (rat, strain Fischer 344, males, in feed, site: liver, lesion: one or several types, types not named, dosed 52 weeks, study length 69 weeks) was “negative (inactive)”.
`O=c1c(O)c(-c2ccc(O)cc2)oc2cc(O)cc(O)c12` was tested, and the TD50 (rat, strain ACI, females, in feed, site: any site (literature study), lesion: several types, types named in the paper, dosed 77 weeks, study length 77 weeks) was 55.3 mg/kg/day (inactive) and the TD50 (rat, strain ACI, males, in feed, site: adrenal gland, lesion: cortical adenoma, dosed 77 weeks, study length 77 weeks) was 17.9 mg/kg/day (inactive).
Work on `C#CC1(O)CC[C@H]2[C@@H]3CCC4=CCCC[C@@H]4[C@H]3CC[C@@]21C` (some centres not stated) yielded a TD50 (dog, strain Beagle, females, in feed, site: mammary gland, lesion: carcinoma, dosed 364 weeks, study length 364 weeks) of 0.58 mg/kg/day.

Reference: PubChem BioAssay AID1745844 (Carcinogenic Potency Database (CPDB), 2022)
